Source: patent publication US20240138411A1, “METHOD OF […] OF SUGARCANE” (CORTEVA AGRISCIENCE LLC, priority 2021, published 2024)

Test system: sugarcane
Test: Sugarcane flowering inhibition field trials, floral induction rated on UFSCar scale
Type: in vivo
Conditions: 475 g ai/ha
Protocol: In order to explore the activity of florpyrauxifen as flowering inhibitor in sugarcane, field studies were carried out. Florpyrauxifen-benzyl was tested at rates from 2 to 20 grams active ingredient per hectare (g ai/ha) and compared to Ethrel® 720 (Bayer), the standard treatment. The flowering inhibition effect was assessed by checking the floral induction in sugarcane through the percentage scale recommended by UFSCar (Federal University of Sao Carlos, Sao Paulo, Brazil).
Four trials were carried out in sugarcane where florpyrauxifen-benzyl (Rinskor®), applied at a rate of 2 to 20 g ai/ha, was compared to ethephon (Ethrel® 720) applied at a rate of 475 g ai/ha. Control plots of untreated sugarcane were also evaluated. Rinskor® and Ethrel® 720 were diluted in water and a single application for each study (backpack sprayer) was performed delivering 50 L of spray solution per ha at the reproductive stage of sugarcane and at a maximum 150 days before harvest. The activity of florpyrauxifen-benzyl as a flowering inhibitor was measured via assessments (Scale of flowering inhibition—see chart 1) performed at 0, 14, 30, 45, 60, 75, 90, 120, 150 days after application, or up to harvest time. The assessments were measured in sugarcane stems, rating the flowering induction according to the UFSCar scale shown below. Significance of treatment effect was evaluated with F-approximate test (α=0.1) and least square means from different treatments were compared with Tukey's test.

O=P(O)(O)CCCl [ETHREL720, 2-chloroethylphosphonic acid]
% Referring to Scale (Table 1, 75 DAA): 12.4% | Frequency 1/1 (0%) (Table 1, 75 DAA): 17.5% | Frequency 2/1 (15%) (Table 1, 75 DAA): 82.5% | Frequency 3/1 (30%) (Table 1, 75 DAA): 0.0% | Frequency 4/1 (50%) (Table 1, 75 DAA): 0.0% | Frequency 4/2 (80%) (Table 1, 75 DAA): 0.0% | Frequency 4/3 (90%) (Table 1, 75 DAA): 0.0% | Frequency 4/4 (100%) (Table 1, 75 DAA): 0.0% | % Referring to Scale (Table 1, 90 DAA): 13.1% | Frequency 1/1 (0%) (Table 1, 90 DAA): 20.0% | Frequency 2/1 (15%) (Table 1, 90 DAA): 72.5% | Frequency 3/1 (30%) (Table 1, 90 DAA): 7.5% | Frequency 4/1 (50%) (Table 1, 90 DAA): 0.0% | Frequency 4/2 (80%) (Table 1, 90 DAA): 0.0% | Frequency 4/3 (90%) (Table 1, 90 DAA): 0.0% | Frequency 4/4 (100%) (Table 1, 90 DAA): 0.0% | % Referring to Scale (Table 1, 120 DAA): 18.1% | Frequency 1/1 (0%) (Table 1, 120 DAA): 0.0% | Frequency 2/1 (15%) (Table 1, 120 DAA): 87.5% | Frequency 3/1 (30%) (Table 1, 120 DAA): 10.0% | Frequency 4/1 (50%) (Table 1, 120 DAA): 0.0% | Frequency 4/2 (80%) (Table 1, 120 DAA): 2.5% | Frequency 4/3 (90%) (Table 1, 120 DAA): 0.0% | Frequency 4/4 (100%) (Table 1, 120 DAA): 0.0% | % Referring to Scale (Table 2, 75 DAA): 0.8% | Frequency 1/1 (0%) (Table 2, 75 DAA): 95.0% | Frequency 2/1 (15%) (Table 2, 75 DAA): 5.0% | Frequency 3/1 (30%) (Table 2, 75 DAA): 0.0% | Frequency 4/1 (50%) (Table 2, 75 DAA): 0.0% | Frequency 4/2 (80%) (Table 2, 75 DAA): 0.0% | Frequency 4/3 (90%) (Table 2, 75 DAA): 0.0% | Frequency 4/4 (100%) (Table 2, 75 DAA): 0.0% | % Referring to Scale (Table 2, 90 DAA): 51.8% | Frequency 1/1 (0%) (Table 2, 90 DAA): 0.0% | Frequency 2/1 (15%) (Table 2, 90 DAA): 0.0% | Frequency 3/1 (30%) (Table 2, 90 DAA): 25.0% | Frequency 4/1 (50%) (Table 2, 90 DAA): 52.5% | Frequency 4/2 (80%) (Table 2, 90 DAA): 22.5% | Frequency 4/3 (90%) (Table 2, 90 DAA): 0.0% | Frequency 4/4 (100%) (Table 2, 90 DAA): 0.0% | % Referring to Scale (Table 2, 120 DAA): 98.0% | Frequency 1/1 (0%) (Table 2, 120 DAA): 0.0% | Frequency 2/1 (15%) (Table 2, 120 DAA): 0.0% | Frequency 3/1 (30%) (Table 2, 120 DAA): 0.0% | Frequency 4/1 (50%) (Table 2, 120 DAA): 0.0% | Frequency 4/2 (80%) (Table 2, 120 DAA): 2.5% | Frequency 4/3 (90%) (Table 2, 120 DAA): 15.0% | Frequency 4/4 (100%) (Table 2, 120 DAA): 82.5% | % Referring to Scale (Table 3, 90 DAA): 0.0% | Frequency 1/1 (0%) (Table 3, 90 DAA): 100.0% | Frequency 2/1 (15%) (Table 3, 90 DAA): 0.0% | Frequency 3/1 (30%) (Table 3, 90 DAA): 0.0% | Frequency 4/1 (50%) (Table 3, 90 DAA): 0.0% | Frequency 4/2 (80%) (Table 3, 90 DAA): 0.0% | Frequency 4/3 (90%) (Table 3, 90 DAA): 0.0% | Frequency 4/4 (100%) (Table 3, 90 DAA): 0.0% | % Referring to Scale (Table 3, 120 DAA): 1.5% | Frequency 1/1 (0%) (Table 3, 120 DAA): 90.0% | Frequency 2/1 (15%) (Table 3, 120 DAA): 10.0% | Frequency 3/1 (30%) (Table 3, 120 DAA): 0.0% | Frequency 4/1 (50%) (Table 3, 120 DAA): 0.0% | Frequency 4/2 (80%) (Table 3, 120 DAA): 0.0% | Frequency 4/3 (90%) (Table 3, 120 DAA): 0.0% | Frequency 4/4 (100%) (Table 3, 120 DAA): 0.0% | % Referring to Scale (Table 3, 150 DAA): 0.0% | Frequency 1/1 (0%) (Table 3, 150 DAA): 100.0% | Frequency 2/1 (15%) (Table 3, 150 DAA): 0.0% | Frequency 3/1 (30%) (Table 3, 150 DAA): 0.0% | Frequency 4/1 (50%) (Table 3, 150 DAA): 0.0% | Frequency 4/2 (80%) (Table 3, 150 DAA): 0.0% | Frequency 4/3 (90%) (Table 3, 150 DAA): 0.0% | Frequency 4/4 (100%) (Table 3, 150 DAA): 0.0% | % Referring to Scale (Table 4, 90 DAA): 4.9% | Frequency 1/1 (0%) (Table 4, 90 DAA): 67.5% | Frequency 2/1 (15%) (Table 4, 90 DAA): 32.5% | Frequency 3/1 (30%) (Table 4, 90 DAA): 0.0% | Frequency 4/1 (50%) (Table 4, 90 DAA): 0.0% | Frequency 4/2 (80%) (Table 4, 90 DAA): 0.0% | Frequency 4/3 (90%) (Table 4, 90 DAA): 0.0% | Frequency 4/4 (100%) (Table 4, 90 DAA): 0.0%
